According to patent EP2631232B1, “Halogen derivatives of benzo[b]furans useful as anti-neoplastic or anti-proliferative drugs” (Centrum Badan Molekularnych I Makromolekularnych Pan, priority 2012, dated 2013):

Columns and labels:
[1] = test system: HeLa cells (uterine cervix cancer); assay: MTT cytotoxicity test, HeLa cells; assay type: cell-based; details: for toxicity to HeLa cells (in words): 48 hours of incubation; for IC50: Homo sapiens, MTT, 48h incubation
Experimental: (§1) A number of halogen derivatives of benzo[b]furans were tested for cytotoxic properties against four cell lines. The tests were conducted by means of MTT where yellow tetrazole salt was processed by the dehydrogenases in mitochondria of live cells into violet formazan, in cell lines mentioned below: • HeLa cells (uterine cervix cancer); • HL60 cells (human acute myelogenous leukaemia); • K562 cells (human chronic myelogenous leukaemia), and • HUVEC cells (normal human endothelial cells). • 1. HeLa, K562, HL 60, and HUVEC cells, 7 thousand cells per well (in 200 µl of the medium) were disseminated on 96-well plates. Cells were incubated overnight in the incubator (37°C, 5% CO2). • 2. Test compounds were dissolved in DMSO; 2µL solution amounts were added to the cells. Final concentrations of the culture: 1mM, 10µM, 100nM, 1nM. Control: DMSO-containing cells, final concentration of which amounted to 1% in the culture. • 3. Cytotoxicity test (MTT) of test compounds after 48h incubation. After 48h incubation of HeLa, K562, HL60, or HUVEC cells with test compounds, 25 µl of MTT per well added (input concentration = 5mg/ml) to the mixture. MTT, yellow tetrazole salt was reduced to violet formazan by mitochondrial dehydrogenases of live cells; the volume of formazan was measured spectrophotometrically. After 2h incubation of cells with MTT in the incubator (37°C; 5% CO2), cells were lysed in lysing buffer containing SDS and DMF (95 µl/well). The lysis was conducted overnight at 37°C and with 5% CO2. • 4. MTT results were taken from FLUOstar Omega reader (wavelengths: 570 and 650 nm). Absorbance measured at 570 nm was proportional to the number of live cells. The plates were analysed by reading out the absorbance values at 570 nm and 650 nm wavelengths. The values of IC50 (concentration of compound producing a 50% cell mortality) was taken from the diagram by means of interpolation for a 50% cell survival rate.

[2] = test system: K562 cells (human chronic myelogenous leukaemia); assay: MTT cytotoxicity test, K562 cells; assay type: cell-based; details: for toxicity to K562 cells (in words): 48 hours of incubation; for IC50: Homo sapiens, MTT, 48h incubation
Experimental: as §1

[3] = test system: HL60 cells (human acute myelogenous leukaemia); assay: MTT cytotoxicity test, HL60 cells; assay type: cell-based; details: for toxicity to HL60 cells (in words): 48 hours of incubation; for IC50: Homo sapiens, HL-60, MTT, 48h incubation
Experimental: as §1

[4] = test system: HUVEC cells (normal human endothelial cells); assay: MTT cytotoxicity test, normal HUVEC cells; assay type: cell-based; details: for toxicity to normal HUVEC cells (in words): 48 hours of incubation; for IC50: Homo sapiens, MTT, 48h incubation
Experimental: as §1

caspase 3 and 7 = assay: Apo-ONE Homogeneous Caspase-3/7 Assay in K562 cells; assay type: cell-based, human
Experimental: The above mentioned toxicity of compound 1a was tested for its origin, i.e. induction of necrosis or apoptosis in the K562 cells of chronic myelogenous leukaemia. Accordingly: • K562 cells in RPMI 1640 medium containing a 10% calf foetal serum and antibiotics, were disseminated on a 96-well plate, in the amount of 20 x 10^3 cells per well. Cells were cultured for 24 hours in the incubator (5% CO2; 37°C). • Compound 1a was dissolved in DMSO and added to the cell medium; final concentration in the cell culture was 25 μM (5 x IC50). Negative control was established by means of cells cultured in the presence of DMSO at the concentration of 1%. Positive control was established by means of cells cultured in the presence of 1 μM staurosporin, a strong apoptosis inductor. The cells were incubated with the compounds for 18 hours in the incubator (5% CO2; 37°C). • The test to determine the activity of […] […] Due to proteolytic activity of caspases, the pro-fluorescent substrate was transformed into a fluorescent product the amount of which could be determined by means of fluorescence intensity measurement. • Fluorescence intensity in each well was measured on the plate by means of FLUOStar Omega (BMG-Labtech, Germany) plate reader, at the exciting light wavelength of 485 nm and emission of 520 nm. Fluorescence intensity was proportional to the activity of caspase 3 and 7 in the sample.

[5] = test system: K562 cells (human chronic myelogenous leukaemia); details: comparison value for cis-platinum; cited from earlier work

Structure (SMILES) | toxicity to HeLa cells (in words) [1] | IC50 [1] [µM] | toxicity to K562 cells (in words) [2] | IC50 [2] [µM] | toxicity to HL60 cells (in words) [3] | IC50 [3] [µM] | toxicity to normal HUVEC cells (in words) [4] | IC50 [4] [µM] | activity of caspase 3 and 7 (caspase 3 and 7; 25 µM, 18 hours incubation, compared with reference cells (K562 and K562+DMSO), Fig. 1) | activity of caspases 3 and 7 (caspase 3 and 7; 1a concentration = 25 µM, incubation time = 24h) | IC50 value against K562 cells [5]
COc1cc2c(CBr)c(C(C)=O)oc2c(C(C)=O)c1OC [Compound 1a, 1,1'-[3-(bromomethyl)-5,6-dimethoxy-1-benzofuran-2,7-diyl] diethanon] | toxic to neither | > 1000 | Strong toxicity | 5 | Strong toxicity | 0.1 | not toxic | > 1000 | higher | increased | 
COC(=O)c1c(C)oc2cc(C(=O)C(Br)Br)c(O)c(Br)c12 [Compound 1b] | toxic | 9 | toxic | 1 | toxic | 4 | not toxic | > 1000 |  |  | 
COC(=O)c1c(C)oc2cc(C(=O)C(Br)Br)c(OC)cc12 [Compound 1c] | toxic | 1 | toxic | 1 | toxic | 4 | not toxic | > 1000 |  |  | 
COC(=O)c1c(C)oc2cc(C(=O)C(Cl)Cl)c(O)c(Cl)c12 [Compound 1e] | specifically toxic | 10 | not toxic | > 1000 | specifically toxic | 3 | not toxic | > 1000 |  |  | 
N.N.[Cl][Pt][Cl] [cis-platinum] |  |  |  |  |  |  |  |  |  |  | several to several dozens
